Experimental data reported in publication PMC10392864, “Chukrasia tabularis limonoid plays anti-inflammatory role by regulating NF-κB signaling pathway in lipopolysaccharide-induced macrophages” (Food & Nutrition Research, 2023).
Values joined by “and” are separate entries in the source; they are usually repeats but may differ in a detail not shown here. Equal entries are not always repeated.

Key:
[1] = system: LPS-induced NO production in RAW264.7 cells; assay: LPS-induced NO production in RAW264.7 cells (Griess reaction); format: cell-based
Description: The inhibitory activities of compounds 1–16 on LPS stimulated macrophages was determined by Griess reaction. The NO content was detected by the NO kit according to the protocol described earlier ([23]). RAW264.7 cells obtained from the China Center for Cultivated Studies (Shanghai, China) were maintained in DMEM containing 10% FBS, and under 5% CO2 at 37°C. Briefly, the cells were seeded in a 96-well plate (1 × 10^5 cells/well), after 8 h of pre-incubation under 5% CO2 at 37°C, compounds 1–16 were added to the well plate, respectively, for 12 h. […] The supernatant of the cell culture were collected 24 h later.

IL-6 = IL-6 production in LPS-induced macrophages, ELISA; format: cell-based; settings: compound 2 at 2.3 and 9.2 μmol/L, LPS 1 μg/mL, 24 h, Fig. 3C
Description: (§1) After 8 h of pre-incubation under 5% CO2 at 37°C, limonin 2 was added to the well plate, respectively, for 12 h. Then the cell of administration group and model group were induced with LPS (2 µg/mL) and the control group was treated with DMSO as contrast. The cell supernatants of samples were collected to detect the content of IL-6 and TNF-α by ELISA according to manufacturer protocol. And the normal range of IL-6 and TNF-αELISA kits is 3.75–120 pg/mL and 20–640 pg/mL, respectively.
(§2) Fig. 3 Effects of compound 2 on the production of TNF-α, NO and IL-6 in LPS-induced macrophages. The macrophages were incubated with LPS (1 μg/mL) and treated with compound 2 (2.3 and 9.2 μmol/L) for 24 h. Indomethacin (INM) was used as the positive control. (A) The levels of TNF-α, (B) NO, and (C) IL-6 in the supernatant were assayed using ELISA kits. All values given are the mean ± SEM. *P <0.05, **P <0.01 compared with the LPS group.

TNF-α = TNF-α production in LPS-induced macrophages, ELISA; format: cell-based; settings: compound 2 at 2.3 and 9.2 μmol/L, LPS 1 μg/mL, 24 h, Fig. 3A
Description: as §1, §2

IKKα = assay: Western blot, IKKα in LPS-treated macrophages; format: cell-based; settings: Fig. 4
Description: (§3) Western blot analysis was performed to observe the activities of limonin 2 on NF-κB P65, JAK, STAT, IKBα, IKKα, iNOS and eNOS protein levels. Macrophages were dispersed in 6 well plates for 24 h. After incubation, the cells were processed by HFPS and treated with LPS for 24 h. After treatment, cells were harvested and lysed. Western blot analysis was based on the methods described previously ([24]).
(§4) The NF-κB signaling cascade plays an important role in the adjustment of inflammation ([43], [44]). The expression of NF-κB P65, IKB, and IKKα were measured by Western blot to investigate the anti-inflammatory mechanism of limonin 2. […] Limonin 2 inhibited the phosphorylation and degradation of IKBα (Fig. 4A, D and E) and IKKα (Fig. 4A, F and G).

[2] = Cytotoxicity, SRB method, Huh-7; format: cell-based, human; settings: human, Huh-7 (hepatoma) cells
Description: (§5) Huh-7 (hepatoma), MCF-7 (human breast), KB (oral epithelial), Hela (cervical), H460 (lung), A-549 (lung), and HepG2 (hepatocellular) cancer cell lines (provided by Shanghai Cell Bank) were maintained in RPMI 1640 at 37 ℃, supplemented with 10% FBS. Cytotoxicity was determined by the SRB method, with 5-fluorouracil (5-FU) as a positive control. The IC50 value was calculated using the GraphPad prism program.

[3] = Cytotoxicity, SRB method, H460; format: cell-based, human; settings: human, H460 (lung) cells
Description: as §5

[4] = Cytotoxicity, SRB method, MCF-7; format: cell-based, human; settings: human, MCF-7 (human breast) cells
Description: as §5

[5] = Cytotoxicity, SRB method, Hela; format: cell-based, human; settings: human, Hela (cervical) cells
Description: as §5

[6] = Cytotoxicity, SRB method, KB; format: cell-based, human; settings: human, KB (oral epithelial) cells
Description: as §5

IKBα = assay: Western blot, IKBα in LPS-treated macrophages; format: cell-based; settings: Fig. 4
Description: as §3, §4

JAK2 = assay: Western blot, JAK2 in LPS-treated macrophages; format: cell-based; settings: LPS-treated RAW264.7 cells, Fig. 5
Description: as §3
(§6) To study the effect of limonin 2 on the STAT signaling cascades of LPS-treated macrophage, the levels of JAK2 and STAT3 was measured ([45]).

RAW264.7 cells = assay: RAW264.7 cell viability, SRB assay; format: cell-based
Description: The cytotoxicity of limonin 2 to RAW264.7 cells was detected by SRB assay. […] Therefore, compound 2 of 0–20 μm was used in subsequent experiments to avoid the influence of cytotoxic and anti-inflammatory effect detection.
Fig. 2 Effect of compound 2 on RAW264.7 cells viability. RAW264.7 cells were treated by assigned concentration of compound 2 or DMSO for 24 h. The data are expressed as the mean ± SEM (n = 3). The cells viability (%) = (ODcompound 2 – ODDMSO)/ODDMSO ×100. *P < 0.05,**P < 0.01 compared with control cells treated by DMSO. Statistical differences were analyzed by unpaired t-test.

NF-κB p-P65 = assay: Western blot, NF-κB p-P65 in LPS-treated macrophages; format: cell-based; settings: Fig. 4
Description: as §3, §4

[7] = Cytotoxicity, SRB method, HepG2; format: cell-based, human; settings: human, HepG2 (hepatocellular) cells
Description: as §5

[8] = Cytotoxicity, SRB method, A549; format: cell-based, human; settings: human, A-549 (lung) cells
Description: as §5

iNOS = assay: Western blot, iNOS in LPS-treated macrophages; format: cell-based; settings: Fig. 6
Description: as §3
(§7) To study the effect of limonin 2 on eNOS signaling cascade on LPS treated macrophages ([46]), the level of eNOS was measured. The upregulation of iNOS expression in LPS-treated macrophage was observed (Fig. 6A and B). Compound 2 inhibited the expression of iNOS stimulated by LPS in macrophage. At the same time, downregulation of eNOS protein expression was also found in LPS-stimulated macrophages (Fig. 6A and C).

eNOS = assay: Western blot, eNOS in LPS-treated macrophages; format: cell-based; settings: LPS-stimulated macrophages, Fig. 6
Description: as §3, §7

STAT3 = assay: Western blot, STAT3 in LPS-treated macrophages; format: cell-based; settings: LPS-treated RAW264.7 cells, Fig. 5
Description: as §3, §6

Compound: CCC(=O)OC1C2(O)C(OC(=O)C=CC(C)C)C3(C)CC24OC2(C)OC15C1CC(=O)OC(C6=CC(O)OC6=O)C1(C)CCC5(O2)C4(C)C3CC(=O)OC (centres unmarked) [Compound 2, Chukrasin F]
- IC50 ([1]; Mus musculus, RAW264.7 cells, LPS 2 µg/mL, supernatant after 24 h, read-out: IC50, inhibitory activity on LPS-induced NO production in RAW264.7 cells): 4.58 ± 0.72 µM
- production of NO in LPS-treated macrophages (in words) ([1]; compound 2 at 2.3 and 9.2 μmol/L, LPS 1 μg/mL, 24 h, Fig. 3B): notably inhibited
- production of IL-6 in LPS-treated macrophages (in words) (IL-6): notably inhibited
- production of TNF-α in LPS-treated macrophages (in words) (TNF-α): notably inhibited
- phosphorylation and degradation of IKKα (in words) (IKKα): inhibited
- IC50 [2]: 72.1 ± 13.5 µM
- IC50 [3]: 60.8 ± 6.96 µM
- IC50 [4]: 23.4 ± 5.81 µM
- IC50 [5]: 33.2 ± 8.41 µM
- IC50 [6]: 39.2 ± 2.17 µM
- phosphorylation and degradation of IKBα (in words) (IKBα): inhibited
- expression level of JAK2 (in words) (JAK2): notably reduced
- viability of RAW264.7 cells (in words) (RAW264.7 cells; compound 2 at 0–20 μm, within 24 h): not notably affected
- relative survival rate of RAW264.7 cells (RAW264.7 cells; limonin 2 at 5 ~ 200 μM (seven rising concentrations, not listed singly), 24 h, SRB): 100.7% and 96.3% and 93.9% and 88.0% and 76.4% and 64.4% and 56.7%
- expression of NF-κB p-P65 (in words) (NF-κB p-P65): downregulates
- IC50 [7]: 69.4 ± 10.6 µM
- IC50 [8]: 54.7 ± 10.1 µM
- expression of iNOS stimulated by LPS (in words) (iNOS): inhibited
- eNOS protein expression (in words) (eNOS): completely restored
- expression level of STAT3 (in words) (STAT3): notably reduced
